Assay results reported in the supplement of paper PMC10307832.

Experiments:
Assay in all cases: relative viability (nuclei count vs DMSO), 5 days (fraction); higher = more cells survive
A-427 = test system: A-427
Outline: (§1)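 Relative viability divides the nuclei count in treated wells by that in vehicle wells. Lung cancer cell lines were seeded in 1536-well plates, dosed by pin tool the next day, and fixed and stained after 5 days in one step with final 0.05% Triton X-100, 1% formaldehyde and 1 ug/ml Hoechst. Dosing was a single drug or a fixed anchor-drug dose plus five library-drug doses (not always all listed) in √10 steps, and values are medians of duplicate plates imaged at 4×.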

COR-L 105 = test system: COR-L 105
Outline: as §1

ChaGo-K-1 = test system: ChaGo-K-1
Outline: as §1

EKVX = test system: EKVX
Outline: as §1

EMC-BAC-2 = test system: EMC-BAC-2
Outline: as §1

H3255 = test system: H3255
Outline: as §1

HCC-366 = test system: HCC-366
Outline: as §1

LK-2 = test system: LK-2
Outline: as §1

LOU-NH91 = test system: LOU-NH91
Outline: as §1

NCI-H1563 = test system: NCI-H1563
Outline: as §1

NCI-H1666 = test system: NCI-H1666
Outline: as §1

NCI-H1734 = test system: NCI-H1734
Outline: as §1

NCI-H1755 = test system: NCI-H1755
Outline: as §1

NCI-H1975 = test system: NCI-H1975
Outline: as §1

NCI-H2170 = test system: NCI-H2170
Outline: as §1

NCI-H23 = test system: NCI-H23
Outline: as §1

NCI-H441 = test system: NCI-H441
Outline: as §1

NCI-H520 = test system: NCI-H520
Outline: as §1

NCI-H596 = test system: NCI-H596
Outline: as §1

PC-3 [JPC-3] = test system: PC-3 [JPC-3]
Outline: as §1

SK-MES-1 = test system: SK-MES-1
Outline: as §1

SW 900 = test system: SW 900
Outline: as §1

Nc1ccn([C@@H]2O[C@H](CO)[C@@H](O)[C@@H]2O)c(=O)n1 [Cytarabine] + Cc1nc(Nc2ncc(C(=O)Nc3c(C)cccc3Cl)s2)cc(N2CCN(CCO)CC2)n1 [Dasatinib] (partner 0.075 µM)
relative viability (A-427; first compound 0.005 µM): 0.591 | relative viability (A-427; first compound 0.01581 µM): 0.215 | relative viability (A-427; first compound 0.05 µM): 0.195 | relative viability (A-427; first compound 0.1581 µM): 0.141 | relative viability (A-427; first compound 0.5 µM): 0.135 | relative viability (COR-L 105; first compound 0.005 µM): 0.314 | relative viability (COR-L 105; first compound 0.01581 µM): 0.311 | relative viability (COR-L 105; first compound 0.05 µM): 0.293 | relative viability (COR-L 105; first compound 0.1581 µM): 0.196 | relative viability (COR-L 105; first compound 0.5 µM): 0.187 | relative viability (ChaGo-K-1; first compound 0.005 µM): 0.518 | relative viability (ChaGo-K-1; first compound 0.01581 µM): 0.347 | relative viability (ChaGo-K-1; first compound 0.05 µM): 0.384 | relative viability (ChaGo-K-1; first compound 0.1581 µM): 0.182 | relative viability (ChaGo-K-1; first compound 0.5 µM): 0.184 | relative viability (EKVX; first compound 0.005 µM): 0.567 | relative viability (EKVX; first compound 0.01581 µM): 0.416 | relative viability (EKVX; first compound 0.05 µM): 0.456 | relative viability (EKVX; first compound 0.1581 µM): 0.357 | relative viability (EKVX; first compound 0.5 µM): 0.273 | relative viability (EMC-BAC-2; first compound 0.005 µM): 0.344 | relative viability (EMC-BAC-2; first compound 0.01581 µM): 0.278 | relative viability (EMC-BAC-2; first compound 0.05 µM): 0.203 | relative viability (EMC-BAC-2; first compound 0.1581 µM): 0.154 | relative viability (EMC-BAC-2; first compound 0.5 µM): 0.113 | relative viability (H3255; first compound 0.005 µM): 0.363 | relative viability (H3255; first compound 0.01581 µM): 0.3 | relative viability (H3255; first compound 0.05 µM): 0.273 | relative viability (H3255; first compound 0.1581 µM): 0.199 | relative viability (H3255; first compound 0.5 µM): 0.319 | relative viability (HCC-366; first compound 0.005 µM): 0.573 | relative viability (HCC-366; first compound 0.01581 µM): 0.402 | relative viability (HCC-366; first compound 0.05 µM): 0.424 | relative viability (HCC-366; first compound 0.1581 µM): 0.148 | relative viability (HCC-366; first compound 0.5 µM): 0.0563 | relative viability (LK-2; first compound 0.005 µM): 0.309 | relative viability (LK-2; first compound 0.01581 µM): 0.27 | relative viability (LK-2; first compound 0.05 µM): 0.236 | relative viability (LK-2; first compound 0.1581 µM): 0.157 | relative viability (LK-2; first compound 0.5 µM): 0.163 | relative viability (LOU-NH91; first compound 0.005 µM): 0.542 | relative viability (LOU-NH91; first compound 0.01581 µM): 0.555 | relative viability (LOU-NH91; first compound 0.05 µM): 0.422 | relative viability (LOU-NH91; first compound 0.1581 µM): 0.416 | relative viability (LOU-NH91; first compound 0.5 µM): 0.398 | relative viability (NCI-H1563; first compound 0.005 µM): 0.506 | relative viability (NCI-H1563; first compound 0.01581 µM): 0.466 | relative viability (NCI-H1563; first compound 0.05 µM): 0.46 | relative viability (NCI-H1563; first compound 0.1581 µM): 0.383 | relative viability (NCI-H1563; first compound 0.5 µM): 0.393 | relative viability (NCI-H1666; first compound 0.005 µM): 0.773 | relative viability (NCI-H1666; first compound 0.01581 µM): 0.725 | relative viability (NCI-H1666; first compound 0.05 µM): 0.642 | relative viability (NCI-H1666; first compound 0.1581 µM): 0.396 | relative viability (NCI-H1666; first compound 0.5 µM): 0.394 | relative viability (NCI-H1734; first compound 0.005 µM): 0.419 | relative viability (NCI-H1734; first compound 0.01581 µM): 0.221 | relative viability (NCI-H1734; first compound 0.05 µM): 0.218 | relative viability (NCI-H1734; first compound 0.1581 µM): 0.125 | relative viability (NCI-H1734; first compound 0.5 µM): 0.113 | relative viability (NCI-H1755; first compound 0.005 µM): 0.439 | relative viability (NCI-H1755; first compound 0.01581 µM): 0.316 | relative viability (NCI-H1755; first compound 0.05 µM): 0.372 | relative viability (NCI-H1755; first compound 0.1581 µM): 0.257 | relative viability (NCI-H1755; first compound 0.5 µM): 0.222 | relative viability (NCI-H1975; first compound 0.005 µM): 0.329 | relative viability (NCI-H1975; first compound 0.01581 µM): 0.47 | relative viability (NCI-H1975; first compound 0.05 µM): 0.338 | relative viability (NCI-H1975; first compound 0.1581 µM): 0.297 | relative viability (NCI-H1975; first compound 0.5 µM): 0.191 | relative viability (NCI-H2170; first compound 0.005 µM): 0.576 | relative viability (NCI-H2170; first compound 0.01581 µM): 0.589 | relative viability (NCI-H2170; first compound 0.05 µM): 0.533 | relative viability (NCI-H2170; first compound 0.1581 µM): 0.244 | relative viability (NCI-H2170; first compound 0.5 µM): 0.241 | relative viability (NCI-H23; first compound 0.005 µM): 0.864 | relative viability (NCI-H23; first compound 0.01581 µM): 0.541 | relative viability (NCI-H23; first compound 0.05 µM): 0.655 | relative viability (NCI-H23; first compound 0.1581 µM): 0.236 | relative viability (NCI-H23; first compound 0.5 µM): 0.187 | relative viability (NCI-H441; first compound 0.005 µM): 0.545 | relative viability (NCI-H441; first compound 0.01581 µM): 0.533 | relative viability (NCI-H441; first compound 0.05 µM): 0.485 | relative viability (NCI-H441; first compound 0.1581 µM): 0.324 | relative viability (NCI-H441; first compound 0.5 µM): 0.293 | relative viability (NCI-H520; first compound 0.005 µM): 0.218 | relative viability (NCI-H520; first compound 0.01581 µM): 0.199 | relative viability (NCI-H520; first compound 0.05 µM): 0.263 | relative viability (NCI-H520; first compound 0.1581 µM): 0.187 | relative viability (NCI-H520; first compound 0.5 µM): 0.142 | relative viability (NCI-H596; first compound 0.005 µM): 0.606 | relative viability (NCI-H596; first compound 0.01581 µM): 0.477 | relative viability (NCI-H596; first compound 0.05 µM): 0.601 | relative viability (NCI-H596; first compound 0.1581 µM): 0.48 | relative viability (NCI-H596; first compound 0.5 µM): 0.427 | relative viability (PC-3 [JPC-3]; first compound 0.005 µM): 0.952 | relative viability (PC-3 [JPC-3]; first compound 0.01581 µM): 0.884 | relative viability (PC-3 [JPC-3]; first compound 0.05 µM): 1.01 | relative viability (PC-3 [JPC-3]; first compound 0.1581 µM): 0.63 | relative viability (PC-3 [JPC-3]; first compound 0.5 µM): 0.603 | relative viability (SK-MES-1; first compound 0.005 µM): 0.213 | relative viability (SK-MES-1; first compound 0.01581 µM): 0.174 | relative viability (SK-MES-1; first compound 0.05 µM): 0.127 | relative viability (SK-MES-1; first compound 0.1581 µM): 0.117 | relative viability (SK-MES-1; first compound 0.5 µM): 0.113 | relative viability (SW 900; first compound 0.005 µM): 0.837 | relative viability (SW 900; first compound 0.01581 µM): 0.446 | relative viability (SW 900; first compound 0.05 µM): 0.314
